Reference: patent US12545677B2, “Compounds useful as factor XIa inhibitors” (JANSSEN PHARMACEUTICA NV, priority 2020, dated 2026)
Where two headings read alike, the source gives them in different places.

Key:
CYP3A4 = target: T1, CYP3A4 (Homo sapiens, UniProt P08684); experiment: Assessment of TDI potential using the IC50 shift method; assay type: in vitro ADME; settings: CYP3A4 (testosterone)
T1 construct: Frozen human liver microsomes (HLM) were thawed at 37° C; from tissue; host or cells: human liver microsomes
T1 sequence (P08684 whole entry): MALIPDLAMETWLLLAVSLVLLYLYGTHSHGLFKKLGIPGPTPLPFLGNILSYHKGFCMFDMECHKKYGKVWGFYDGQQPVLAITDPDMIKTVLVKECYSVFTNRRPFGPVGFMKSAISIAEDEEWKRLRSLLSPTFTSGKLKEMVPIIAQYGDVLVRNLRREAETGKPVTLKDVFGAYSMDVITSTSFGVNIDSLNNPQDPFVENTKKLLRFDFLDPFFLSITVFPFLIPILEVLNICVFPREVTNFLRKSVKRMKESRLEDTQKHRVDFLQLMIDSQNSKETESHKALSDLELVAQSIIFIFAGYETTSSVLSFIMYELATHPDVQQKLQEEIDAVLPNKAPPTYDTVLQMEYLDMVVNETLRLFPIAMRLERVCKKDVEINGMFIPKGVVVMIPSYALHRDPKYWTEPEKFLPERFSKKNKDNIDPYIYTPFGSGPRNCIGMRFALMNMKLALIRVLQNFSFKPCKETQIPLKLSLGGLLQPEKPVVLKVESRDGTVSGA
Procedure: Assessment of TDI Potential Using the IC50 Shift Method
To establish the potential for TDI of a particular P450 isozyme, the test compound is preincubated over a concentration range (typically 0.04 to 10 μM) with HLMs in the presence of cofactor NADPH for 30 minutes. After pre-incubation, a probe substrate known to be specifically metabolized to a defined metabolite by the isoform under investigation is then added at fixed concentration. Following a pre-defined incubation period (e.g. 10 minutes for the CYP3A4 testosterone assay), the reaction is terminated by addition of a suitable organic solvent (typically, acetonitrile) containing an internal standard. The samples are centrifuged prior to analysis by LC-MS/MS analysis and IC50 TDI value is calculated using curve fitting. This is compared to the IC50 for reversible inhibition, obtained when the pre-incubation step is performed in the absence of […] (IC50 Rev). A leftwards shift in the IC50 (i.e. increased inhibition) upon pre-incubation indicates the potential for TDI of that isozyme. The IC50 shift value is calculated as the ratio of IC50 Rev/IC50 TDI.
The assay was performed on a fully automated Tecan robotic system. Sample analysis was performed via LC-MS/MSMS using stable-labelled internal standard of the probe substrate metabolite.

HERG current = target: T2, HERG current (Homo sapiens, UniProt Q12809); experiment: hERG assay, whole-cell voltage clamp in HEK293 cells; assay type: cell-based; settings: HEK293 with stable transfection of HERG, 5 minutes of drug application
T2 construct: expressed in transfected cells; host or cells: HEK293
T2 sequence (Q12809 whole entry): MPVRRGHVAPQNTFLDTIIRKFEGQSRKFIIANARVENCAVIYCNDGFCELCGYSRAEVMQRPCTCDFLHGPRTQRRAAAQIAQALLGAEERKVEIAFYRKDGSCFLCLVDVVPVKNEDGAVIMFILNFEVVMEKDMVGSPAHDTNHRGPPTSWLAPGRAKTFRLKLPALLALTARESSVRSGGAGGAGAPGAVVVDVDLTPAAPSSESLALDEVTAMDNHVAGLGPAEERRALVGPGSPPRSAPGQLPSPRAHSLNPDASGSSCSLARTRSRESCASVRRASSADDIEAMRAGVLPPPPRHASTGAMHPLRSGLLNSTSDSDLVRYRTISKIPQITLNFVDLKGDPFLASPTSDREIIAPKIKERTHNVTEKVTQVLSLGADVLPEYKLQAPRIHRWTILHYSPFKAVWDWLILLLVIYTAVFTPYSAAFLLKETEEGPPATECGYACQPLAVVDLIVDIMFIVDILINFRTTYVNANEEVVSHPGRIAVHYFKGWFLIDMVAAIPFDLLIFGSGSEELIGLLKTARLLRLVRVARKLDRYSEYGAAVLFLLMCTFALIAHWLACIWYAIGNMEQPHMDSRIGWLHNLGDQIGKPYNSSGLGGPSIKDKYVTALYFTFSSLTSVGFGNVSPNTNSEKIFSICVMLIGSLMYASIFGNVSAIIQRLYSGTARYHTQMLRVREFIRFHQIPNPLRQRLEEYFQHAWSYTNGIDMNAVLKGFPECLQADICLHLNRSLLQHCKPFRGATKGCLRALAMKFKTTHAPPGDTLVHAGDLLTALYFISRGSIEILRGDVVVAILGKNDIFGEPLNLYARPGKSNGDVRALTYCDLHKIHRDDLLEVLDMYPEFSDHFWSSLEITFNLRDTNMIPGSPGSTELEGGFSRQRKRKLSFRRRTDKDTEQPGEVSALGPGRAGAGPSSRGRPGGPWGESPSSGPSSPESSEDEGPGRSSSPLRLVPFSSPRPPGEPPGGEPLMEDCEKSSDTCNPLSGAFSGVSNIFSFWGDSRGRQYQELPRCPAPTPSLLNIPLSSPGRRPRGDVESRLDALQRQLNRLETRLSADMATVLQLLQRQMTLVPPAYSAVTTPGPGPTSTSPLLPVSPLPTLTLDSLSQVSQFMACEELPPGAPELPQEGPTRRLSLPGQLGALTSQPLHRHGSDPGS
Text: Biological Example 6: hERG Assay
HERG (human ether-à-go-go-related gene) encodes a potassium channel with biophysical properties similar to the rapidly activating delayed-rectifier K^+ current (IKr) in cardiac myocytes. This IKr current contributes to the K^+ current responsible for the repolarization phase of the cardiac action potential. Blockage of this current may prolong action potential duration and cause long QT-syndrome. The development of QT prolongation can lead to the occurrence of ventricular arrhythmias such as Torsades de Pointes, which can result in sudden death. […]
Electrophysiological measurements: The membrane current of the cells was measured at distinct membrane potentials with the patch clamp technique by means of an EPC-9 patch clamp amplifier. […] The HERG current (K+-selective outward current) was determined as the maximal tail current at −40 mV after a 2 second depolarization to +60 mV. […] Thereafter test pulses were given for 5 minutes to quantify the HERG current in control conditions. […] The effect of the test compound was measured after 5 minutes of drug application. […]
Measurements: The HERG current was determined as the maximal tail current at −40 mV after a 2 second depolarization to +60 mV, starting from a holding potential of −80 mV. […]

O=C1C=C(c2c(-n3cnnn3)ccc(Cl)c2F)C[C@H]2CC[C@@H](c3ncc(-c4ccnc(CO)c4F)[nH]3)N12 [Compound of formula (I-A), (3S,8aR)-7-(3-Chloro-2-fluoro-6-(1H-tetrazol-1-yl)phenyl)-3-(5-(3-fluoro-2-(hydroxymethyl)pyridin-4-yl)-1H-imidazol-2-yl)-2,3,8,8a-tetrahydroindolizin-5(1H)-one]
% maximum concentration, without pre-incubation (CYP3A4; HLM): 68.2% | % maximum concentration, with pre-incubation (CYP3A4; HLM, 30 minutes pre-incubation): 62.8% | IC50 (CYP3A4; HLM, 30 minutes pre-incubation with NADPH, read-out: IC50 with pre-incubation): 17.5 ± 2.5 µM | IC50 (CYP3A4; HLM, standard solvent conditions, read-out: IC50 without pre-incubation): 12.2 ± 1.4 µM | IC50 shift (CYP3A4; ratio of IC50 Rev/IC50 TDI): 0.70 | IC50 (HERG current): > 30 µM
